From patent US10485772B2, “Compositions for modulating cancer stem cells and uses therefor” (University of Canberra, priority 2014, dated 2019)

Tested on: CD44^high/CD24^low CSC-like subpopulation of PMA-stimulated MCF-7 cells (MCF-IM model)
Assay: FACS analysis of CD44high/CD24low CSC-like subpopulation in MCF-IM model
Assay type: cell-based, human
Conditions: MCF-IM model; for CD44 high CD24 low-CSC-like subpopulation by FACS: bisindolylmaleimide-I 100 nm and 1 μM prior to PMA for 60 hrs
Protocol: Cells from each well/flask were harvested by means of trypsin treatment followed by two washes with PBS. Washed cells then re-suspended in an antibody cocktail consisting anti-CD44-APC, anti-CD24-PE antibodies (details in Table 5) and Hoechst 33258 dye (final dilution of 1:1000) (Invitrogen, Carlsbad, Calif.) in 1% FCS-PBS solution. Cells re-suspended in antibody cocktail were incubated for 20 minutes at 4° C. Cells were next washed twice with PBS and re-suspended in 1% FCS-PBS solution (volume based on cell number) and kept on ice until analyzed by FACS. Forward scatter (FSC) and side scatter parameters were selected with FITC fluorochrome excited by 488 nm argonion laser, PE fluorochrome excited by 488 nm and Hoechst fluorochrome excited by 350 nm helium-cadmium UV laser.
Flow Cytometry data was produced using either BD FACS LSR Flow Cytometer (Becton Dickinson Biosciences) or BD FACS Aria™ II Flow Cytometer (Becton Dickinson Biosciences) and analyzed using the data acquisition software CellQuest Pro (Becton Dickinson Biosciences) and FlowJo (Tree Star Inc., Ashland, Oreg.) software at the MCRF facility, JCSMR, ANU, Canberra, Australia. Single colour controls were used to set compensation parameters. Isotype controls were used for all corresponding primary antibodies in each experiment.
The FACS gating strategy used in this thesis is adopted and modified from the pioneer breast cancer stem cell publications (Al-Hajj et al., 2003) which sorted cells based on the CD44^high and CD24^low expression. […] To confirm that anti-CD44-APC and anti-CD24-PE antibodies were specific, isotype control antibodies were used. The isotype (negative controls) used for anti-CD24-PE was PE Mouse-Anti-human IgG2aK and for anti-CD44-APC was APC-Mouse-Anti-human IgG2bK. First, all the cells were stained with Hoechst 33258 to monitor cell viability. In addition cells were stained with varying concentrations of either APC or PE isotypes controls.
The adherent human mammary adenocarcinoma MCF-7 and MDA-MB-231 cells were cultured in low glucose DMEM (Gibco) and both supplemented with 10% FCS, 2 mM L-glutamine and 0.1% PSN antibiotics. Cells were stimulated with 0.65 ng/ml of phorbol 12-myristate 13-acetate (PMA) (Sigma-Aldrich) or 20 ng/ml of TGF-β (R&D systems) for the times indicated. For Bisindolylmaleimide-I (Calbiochem) or PKC-θ peptide inhibitor (Calbiochem) studies, cells were pre-treated with 1 μM or 30 μM of inhibitor respectively for 1 h prior to stimulation in MCF-7 cells. In case of MDA-MB-231, cells were treated with 4 μM or 30 μM Bisindolylmaleimide-I or PKC-θ peptide inhibitor respectively.
To separate CSC from non-CSC (NCSC), florescence activated cell sorting (FACS) was performed on single-cell suspensions that were stained with anti-CD44-APC (559942, BD Biosciences) and anti-CD24-PE antibodies (555428, BD Biosciences) along with Hoechst 33258 to monitor cell viability. As used throughout this work, CSC are defined by minority CD44^high/CD24^low, whereas NCSC are defined by rest of the cell populations.
The adherent human mammary adenocarcinoma cell lines MCF-7 were cultured in low glucose DMEM (Gibco) and supplemented with 10% FCS, 2 mM L-glutamine, and 0.1% PSN antibiotics. Cells were stimulated with 0.65 ng/ml of phorbol 12-myristate 13-acetate (PMA) (Sigma-Aldrich) for 60 hours. FACS was performed on single-cell suspensions stained with anti-CD44-APC (559942, BD Biosciences) and anti-CD24-PE antibodies (555428, BD Biosciences), along with Hoechst 33258 (561908, BD Biosciences) to monitor cell viability as previously detailed (Zafar et al., Chromatinized PKC-theta directly regulates inducible genes in epithelial to mesenchymal transition and breast cancer stem cells. Molecular and Cellular Biology, 2014, 34:16 2961-2980). […]

SMILES: Cn1c2ccccc2c2c3c(c4c5ccccc5n(CCC#N)c4c21)CNC3=O [Go6976]
- CD44 high CD24 low-CSC-like subpopulation (CSC formation) by FACS (Go6976 1 μM prior to PMA for 60 hrs): did not prevent PMA-induced EMT-like morphological changes or CSC formation

SMILES: CN(C)CCCn1cc(C2=C(c3c[nH]c4ccccc34)C(=O)NC2=O)c2ccccc21 [bisindolylmaleimide-I]
- CD44 high CD24 low-CSC-like subpopulation by FACS: only very high concentration of bisindolylmaleimide-I but not Go 6976 inhibits CD44 high CD24 low-CSC-like subpopulation
- CD44 high CD24 low-CSC-like subpopulation by FACS (listed as Broad spectrum PKC pathway inhibitor): inhibition of EMT and CSC formation
